Results taken from paper PMC6915869, “Immunosuppressive effects of a novel potassium channel toxin Ktx-Sp2 from Scorpiops Pocoki” (Cell & Bioscience, 2019).
“Also recorded” adds a separate entry of the source. Bridge positions count the residues as written; N and C are the ends. Peptide text beside a SMILES is read from it.

Experiments:
[1] = test system: endogenous sodium channels expressed by DRG neurons; assay: Whole-cell patch-clamp, endogenous sodium channels of DRG neurons; type: cell-based, mouse; conditions: 1 μM; +10 mV 100 ms pulse from -60 mV every 10 s
Protocol: (§1) Mouse spinal columns were removed and placed in ice cold HBSS, then laminectomies were performed and bilateral DRG were dissected out. After removal of connective tissues, DRG were transferred to a 1 ml Ca^2+/Mg^2+-free HBSS containing 2 μl saturated NaHCO3, 0.35 mg L-cysteine and 20 U papain (Worthington, Lakewood, NJ, USA), and incubated at 37 °C for 10 min. The suspension of DRG was centrifuged, the supernatant was removed, 1 ml Ca^2+/Mg^2+-free HBSS containing 4 mg collagenase type II and 1.25 mg dispase type II (Worthington) was added and incubated at 37 °C for 10 min. After digestion, neurons were pelleted, suspended in neurobasal medium containing 2% B-27 supplement, 1% L-glutamine, 100 U/ml penicillin plus 100 μg/ml streptomycin, and 50 ng/ml nerve growth factor, plated on a 12 mm coverslip coated with poly-L-lysine (10 μg/ml) and cultured under a humidified atmosphere of 5% CO2/95% air at 37 °C for 18–24 h before use. Jurkat E6-1 T cells (ATCC TIB152) and HEK293T cells (ATCC ACS4500) were maintained in RPMI medium 1640 (Invitrogen, Carlsbad, CA, USA) and Dulbecco’s modified Eagle’s medium (DMEM) (Life Technologies,GrandIsland, NY, USA), supplemented with 10% fetal bovine serum (Life Technologies), 100 units/ml penicillin, 100 μg/ml streptomycin, respectively. Cells were cultured in a humidified incubator at 37 °C with 5% CO2. […]

[2] = target: T1, endogenous Kv1.3 expressed by human Jurkat T cells (Homo sapiens, UniProt P22001); assay: Whole-cell patch-clamp, endogenous Kv1.3 in Jurkat T cells; type: cell-based
T1 construct: endogenous Kv1.3 expressed by human Jurkat T cells; host or cells: Jurkat E6-1 T cells
Protocol: (§2) Mouse spinal columns were removed and placed in ice cold HBSS, then laminectomies were performed and bilateral DRG were dissected out. After removal of connective tissues, DRG were transferred to a 1 ml Ca^2+/Mg^2+-free HBSS containing 2 μl saturated NaHCO3, 0.35 mg L-cysteine and 20 U papain (Worthington, Lakewood, NJ, USA), and incubated at 37 °C for 10 min. The suspension of DRG was centrifuged, the supernatant was removed, 1 ml Ca^2+/Mg^2+-free HBSS containing 4 mg collagenase type II and 1.25 mg dispase type II (Worthington) was added and incubated at 37 °C for 10 min. After digestion, neurons were pelleted, suspended in neurobasal medium containing 2% B-27 supplement, 1% L-glutamine, 100 U/ml penicillin plus 100 μg/ml streptomycin, and 50 ng/ml nerve growth factor, plated on a 12 mm coverslip coated with poly-L-lysine (10 μg/ml) and cultured under a humidified atmosphere of 5% CO2/95% air at 37 °C for 18–24 h before use. Jurkat E6-1 T cells (ATCC TIB152) and HEK293T cells (ATCC ACS4500) were maintained in RPMI medium 1640 (Invitrogen, Carlsbad, CA, USA) and Dulbecco’s modified Eagle’s medium (DMEM) (Life Technologies,GrandIsland, NY, USA), supplemented with 10% fetal bovine serum (Life Technologies), 100 units/ml penicillin, 100 μg/ml streptomycin, respectively. Cells were cultured in a humidified incubator at 37 °C with 5% CO2. The cDNAs encoding mKv1.1, mKv1.2, mKv1.3, mNav1.4, mNav1.5 and mNav1.7 were subcloned into the XhoI/BamHI sites of a bicistronic vector, pIRES2-EGFP (Clontech, USA), then transiently transfected into HEK293-T cells using Lipofectamine 2000 (Invitrogen) for electrophysiological experiments.
(§3) Whole-cell patch-clamp recordings were performed using an EPC 9 amplifier (HEKA Elektronik, Lambrecht/Pfalz, Germany) at room temperature (22–24 °C). Pipettes pulled from borosilicate glass (BF 150-86-10; Sutter Instrument Company, Novato, CA, USA) had resistances of 2–4 MΩ when filled with the internal solution. The internal pipette solution for recording Kv currents contained: KCl 140 mM, MgCl2 1 mM, EGTA 1 mM, Na2ATP 3 mM, HEPES 10 mM (pH 7.3 with KOH); for recording Na currents contained: CsCl 100 mM, CsF 40 mM, MgCl2 2 mM, HEPES 10 mM, EGTA 10 mM, D-Glucose 10 mM, Na2ATP 3 mM (pH 7.3 with CsOH). The external solution for recording Kv currents contained: KCl 5 mM, NaCl 140 mM, HEPES 10 mM, CaCl2 2 mM, MgCl2 1 mM, D-Glucose 10 mM (pH 7.4 with NaOH); for recording Na currents contained: NaCl 132 mM, KCl 5.4 mM, CaCl2 1.8 mM, MgCl2 0.8 mM, HEPES 10 mM, D-Glucose 5 mM (pH 7.4 with NaOH). Kv currents were elicited by + 50 mV, 400 ms depolarizing pulse from the holding potential of − 60 mV every 20 s, and Na currents were elicited by + 10 mV, 100 ms depolarizing pulse from the holding potential of − 60 mV every 10 s. […]

[3] = test system: mNav1.5; assay: Whole-cell patch-clamp, exogenous Nav1.5 in HEK293T cells; type: cell-based; conditions: 1 μM, +10 mV 100 ms pulse from -60 mV every 10 s
Protocol: as §1

[4] = target: T2, mKv1.2 (Mus musculus, UniProt P63141); assay: Whole-cell patch-clamp, exogenous Kv1.2 in HEK293T cells; type: cell-based
T2 construct: expressed in transfected cells; host or cells: HEK293T, vector pIRES2-EGFP (bicistronic, EGFP not fused)
Protocol: as §2, §3

[5] = target: T3, mKv1.3 (Mus musculus, UniProt P16390); assay: Whole-cell patch-clamp, exogenous Kv1.3 in HEK293T cells; type: cell-based
T3 construct: expressed in transfected cells; host or cells: HEK293T, vector pIRES2-EGFP (bicistronic, EGFP not fused)
Protocol: as §1

[6] = test system: mNav1.7; assay: Whole-cell patch-clamp, exogenous Nav1.7 in HEK293T cells; type: cell-based; conditions: 1 μM, +10 mV 100 ms pulse from -60 mV every 10 s
Protocol: as §1

[7] = test system: IL-2 secretion from Jurkat T cells; assay: IL-2 secretion from ConA-activated Jurkat T cells (ELISA); type: cell-based, human; conditions: ConA 10 μg/ml; for ConA-induced IL-2 secretion (in words): Ktx-Sp2 10 nM, 100 nM, 1 μM and 10 μM, 24 h, ELISA at 450 nm, n = 6, ***P < 0.0001
Protocol: IL-2 secretion from Jurkat T cells was measured using an ELISA kit (eBioscience, San Diego, CA, USA) following manufacturer’s instructions. Cells were centrifuged at 1500 rpm for 10 min, and the supernatants were collected to measure IL-2 concentrations. Reactions were performed in 96-well plates coated with the capture antibody and stopped with phosphoric acid (1 M). Absorbance was measured at 450 nm. Each experiment was repeated at least three times in duplicate.
The cytokine IL-2 is predominantly secreted from activated T cells and is critical in regulating the balance between immune tolerance and autoimmunity. The secretion of IL-2 is driven by a rise of [Ca^2+]i. Since Ktx-Sp2 potently suppresses Kv1.3 function and decreases Ca^2+ influx in Jurkat T cells we next asked whether Ktx-Sp2 could inhibit IL-2 secretion, which should result in functional immunosuppression. As a classical polyclonal stimulator acting through T-cell receptor complex (TCR)-CD3 complex, ConA has been used to induce T cell activation and stimulate IL-2 secretion, which is dependent on an increase of [Ca^2+]i. We thus used the ConA-stimulated IL-2 secretion in the growth media as readout.
Fig. 6 Ktx-Sp2 inhibits IL-2 secretion from activated Jurkat T cells. The concentrations of IL-2 in cell growth media were measured by ELISA. Jurkat T cells were activated by ConA (10 μg/ml) for 24 h. Ktx-Sp2 (10 nM, 100 nM, 1 μM and 10 μM) were added simultaneously with ConA. ***P < 0.0001, n = 6

[8] = test system: mNav1.4; assay: Whole-cell patch-clamp, exogenous Nav1.4 in HEK293T cells; type: cell-based; conditions: 1 μM, +10 mV 100 ms pulse from -60 mV every 10 s
Protocol: as §1

[9] = target: T4, mKv1.1 (Mus musculus, UniProt P16388); assay: Whole-cell patch-clamp, exogenous Kv1.1 in HEK293T cells; type: cell-based
T4 construct: expressed in transfected cells; host or cells: HEK293T, vector pIRES2-EGFP (bicistronic, EGFP not fused)
Protocol: as §2
Whole-cell patch-clamp recordings were performed using an EPC 9 amplifier (HEKA Elektronik, Lambrecht/Pfalz, Germany) at room temperature (22–24 °C). Pipettes pulled from borosilicate glass (BF 150-86-10; Sutter Instrument Company, Novato, CA, USA) had resistances of 2–4 MΩ when filled with the internal solution. […]

[10] = test system: Ca^2+ influx in Jurkat T cells; assay: Live cell Ca^2+ imaging (Fura-2) in Jurkat T cells; type: cell-based, human; conditions: for inhibition of Ca^2+ influx / free calcium concentration (in words): 10 μM Ktx-Sp2, 3 min pre-treatment, 10 μM CPA, then 2 mM Ca^2+
Protocol: Jurkat T cells were loaded with 4 μM Fura-2 AM (Life Technologies) for 60 min at 37 °C. Cells were then washed 3 times and incubated in Hank’s Balanced Salt Solution (HBSS) for 30 min at room temperature before use. Fluorescence at 340 nm and 380 nm excitation wavelengths was recorded on an inverted Nikon Ti-E microscope equipped with 340, 360 and 380 nm excitation filter wheels using NIS-Elements imaging software (Nikon Instruments Inc., Melville, NY, USA). Fura-2 ratios (F340/F380) reflect changes in [Ca^2+]i upon stimulation. Data were obtained from 100 to 250 cells in time-lapse images from each coverslip.
To test this hypothesis we performed live cell Ca^2+ imaging using the Ca^2+ indicator dye Fura-2 to determine the effect of Ktx-Sp2 on [Ca^2+]i in the presence of intracellular Ca^2+ store depletion by cyclopiazonic acid (CPA), an inhibitor of the sarcoplasmic reticulum Ca^2+-ATPase. […] When 2 mM Ca^2+ was added to the Ca^2+-free HBSS, we observed a large Ca^2+ influx into the cells. […] At 10 μM, Ktx-Sp2 decreased the F340/F380 ratio from 0.14 ± 0.02 to 0.05 ± 0.01 (n = 278) (Fig. 5b).

[11] = +50 mV 400 ms pulse from -60 mV every 20 s, room temperature (22–24 °C), mean ± SEM

T2 sequence (P63141 whole entry, the tested form may be a part): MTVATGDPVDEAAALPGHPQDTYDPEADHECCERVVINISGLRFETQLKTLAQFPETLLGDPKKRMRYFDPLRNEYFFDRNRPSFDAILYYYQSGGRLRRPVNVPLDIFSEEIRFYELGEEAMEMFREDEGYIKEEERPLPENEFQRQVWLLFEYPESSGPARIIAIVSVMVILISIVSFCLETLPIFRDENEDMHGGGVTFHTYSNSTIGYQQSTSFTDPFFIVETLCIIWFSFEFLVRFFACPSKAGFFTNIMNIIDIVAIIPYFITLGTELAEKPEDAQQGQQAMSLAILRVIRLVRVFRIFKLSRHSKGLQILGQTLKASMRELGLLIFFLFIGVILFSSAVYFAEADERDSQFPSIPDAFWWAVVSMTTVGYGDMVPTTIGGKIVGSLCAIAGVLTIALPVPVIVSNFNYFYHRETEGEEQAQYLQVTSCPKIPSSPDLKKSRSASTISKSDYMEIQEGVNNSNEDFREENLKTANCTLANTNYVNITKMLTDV
T1 sequence (P22001 whole entry): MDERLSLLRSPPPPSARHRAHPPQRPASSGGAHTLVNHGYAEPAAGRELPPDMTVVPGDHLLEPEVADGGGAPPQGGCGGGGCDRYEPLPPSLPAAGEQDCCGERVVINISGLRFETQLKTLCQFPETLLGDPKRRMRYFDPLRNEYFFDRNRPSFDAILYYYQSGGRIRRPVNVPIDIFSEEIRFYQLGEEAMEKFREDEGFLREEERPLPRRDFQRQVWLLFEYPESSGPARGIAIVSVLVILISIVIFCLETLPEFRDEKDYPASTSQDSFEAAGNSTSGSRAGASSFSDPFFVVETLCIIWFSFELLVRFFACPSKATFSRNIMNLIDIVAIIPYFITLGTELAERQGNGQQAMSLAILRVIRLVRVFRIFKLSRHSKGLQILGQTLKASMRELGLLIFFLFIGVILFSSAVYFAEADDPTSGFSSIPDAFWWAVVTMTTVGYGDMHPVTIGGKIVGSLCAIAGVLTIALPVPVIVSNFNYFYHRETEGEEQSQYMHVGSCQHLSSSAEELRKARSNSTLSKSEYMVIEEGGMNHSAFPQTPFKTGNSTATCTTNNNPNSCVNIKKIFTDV
T3 sequence (P16390 whole entry, the tested form may be a part): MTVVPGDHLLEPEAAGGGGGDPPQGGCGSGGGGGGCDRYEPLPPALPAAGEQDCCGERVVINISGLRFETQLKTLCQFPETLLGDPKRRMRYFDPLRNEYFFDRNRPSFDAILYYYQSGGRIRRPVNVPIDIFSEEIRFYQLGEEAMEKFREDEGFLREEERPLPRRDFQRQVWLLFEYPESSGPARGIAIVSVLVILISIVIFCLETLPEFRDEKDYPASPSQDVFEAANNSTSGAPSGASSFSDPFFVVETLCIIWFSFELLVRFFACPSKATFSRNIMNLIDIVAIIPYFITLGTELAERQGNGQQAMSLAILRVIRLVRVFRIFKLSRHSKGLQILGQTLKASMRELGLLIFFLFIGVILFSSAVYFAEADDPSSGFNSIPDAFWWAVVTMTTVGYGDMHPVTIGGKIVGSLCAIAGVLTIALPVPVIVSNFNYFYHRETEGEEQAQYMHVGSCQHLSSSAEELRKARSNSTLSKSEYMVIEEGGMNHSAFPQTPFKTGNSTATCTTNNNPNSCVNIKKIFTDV
T4 sequence (P16388 whole entry, the tested form may be a part): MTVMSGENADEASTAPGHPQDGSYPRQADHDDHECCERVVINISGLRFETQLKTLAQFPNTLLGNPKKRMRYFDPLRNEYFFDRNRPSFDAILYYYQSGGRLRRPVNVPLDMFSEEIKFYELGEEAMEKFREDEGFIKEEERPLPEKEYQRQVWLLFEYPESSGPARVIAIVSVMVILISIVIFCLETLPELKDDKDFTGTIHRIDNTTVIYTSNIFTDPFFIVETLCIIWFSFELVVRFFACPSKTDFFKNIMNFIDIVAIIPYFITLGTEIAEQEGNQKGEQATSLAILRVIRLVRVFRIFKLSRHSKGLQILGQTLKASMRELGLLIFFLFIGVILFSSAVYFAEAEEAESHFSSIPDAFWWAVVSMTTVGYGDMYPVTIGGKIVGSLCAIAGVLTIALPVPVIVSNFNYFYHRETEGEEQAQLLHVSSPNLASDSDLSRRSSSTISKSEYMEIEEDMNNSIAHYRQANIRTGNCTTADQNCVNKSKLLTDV

## CSCC[C@@H]1NC(=O)[C@@H]2CSSC[C@H](NC(=O)[C@H](CCCCN)NC(=O)[C@H](C)NC(=O)CNC(=O)[C@H](Cc3c[nH]cn3)NC(=O)[C@H](CC(C)C)NC(=O)[C@@H]3CCCN3C(=O)[C@@H](N)CO)C(=O)N[C@@H](CO)C(=O)N[C@@H](CO)C(=O)N[C@@H](CO)C(=O)N[C@@H](CC(N)=O)C(=O)N[C@@H](CCC(N)=O)C(=O)N[C@H]3CSSC[C@H](NC(=O)[C@H](CCCNC(=N)N)NC(=O)CNC(=O)[C@H](CC(N)=O)NC1=O)C(=O)N[C@@H](CCCNC(=N)N)C(=O)N[C@H](C(=O)N[C@@H](Cc1ccc(O)cc1)C(=O)NCC(=O)O)CSSC[C@H](NC(=O)[C@@H]1CCCN1C(=O)[C@H](CCCNC(=N)N)NC(=O)[C@H]([C@@H](C)O)NC3=O)C(=O)N[C@@H](CCCNC(=N)N)C(=O)N[C@@H](Cc1ccc(O)cc1)C(=O)NCC(=O)NCC(=O)NCC(=O)N[C@@H]([C@@H](C)O)C(=O)N[C@@H](Cc1c[nH]cn1)C(=O)NCC(=O)N[C@@H](CCCCN)C(=O)N2 [Ktx-Sp2] (H-SPLHGAKCSSSNQCTRPCRYGGGTHGKCMNGRCRCYG-OH; disulfide 8-28, 14-33, 18-35 (inferred); N-terminus and C-terminus assumed)
[1]
  effect on endogenous sodium channels of DRG neurons: almost had no effect
[2]
  blocking of endogenous Kv1.3 in Jurkat T cells (in words): effectively block endogenous Kv1.3; also recorded: equivalent to the exogenous expression Kv1.3 on the HEK293T cell membrane
[2]; 30 nM, bath application, n = 5, +50 mV 400 ms pulse from -60 mV, almost zero cytosolic Ca^2+
  reduction of Kv1.3 current: about 50%
[2]; +50 mV 400 ms pulse from -60 mV, almost zero cytosolic Ca^2+, currents normalized to control, Hill equation, read-out: IC50 for Kv1.3 current in Jurkat T cells
  IC50: 29.1 ± 1.12 nM
[2]; bath application, washout
  reversibility of suppressive effect on Kv1.3 current after washout: partially reversible after washout
[3]
  effect on Nav1.5: almost had no effect
[4]; [11]
  IC50: 56.9 ± 2.32 nM
[4]; Discussion section
  blocking activity on Kv1.3 relative to Kv1.2 (Discussion): 4 times
[4]; electrophysiology
  blocking activity on Kv1.2 channel (rounded, Discussion): about 57 nM
[4]; exogenous channel
  blocking of Kv1.2 (in words): effectively block; also recorded: high blocking activity
[5]; +50 mV 400 ms pulse from -60 mV every 20 s, room temperature (22–24 °C), mean ± SEM, n = 8, read-out: IC50 for mKv1.3-mediated currents
  IC50: 14.7 ± 1.98 nM
[5]; exogenous channel
  blocking of Kv1.3 (in words): the blocking activity for Kv1.3 was relatively high; also recorded: the blocking activity on Kv1.3 channel is the strongest
[6]
  effect on Nav1.7: almost had no effect
[7]
  activation of Jurkat T cells (in words): inhibit the activation of Jurkat T cells
  ConA-induced IL-2 secretion (in words): reduce the release of inflammatory cytokines IL-2; also recorded: significantly reduced ConA-induced IL-2 secretion in a concentration-dependent manner
[7]; listed as Ktx-sp2
  activation of Jurkat T cells (in words): inhibiting the activation effect of ConA on Jurkat T cells
  ConA-induced IL-2 secretion (in words): significantly reducing the release of inflammatory cytokine IL-2
[8]
  effect on Nav1.4: almost had no effect
[9]; [11]
  IC50: 485 ± 25.5 nM
[9]; Discussion section
  blocking activity on Kv1.3 relative to Kv1.1 (Discussion): 33 times
[9]; exogenous channel
  blocking of Kv1.1 (in words): effectively block
[10]
  inhibition of Ca^2+ influx / free calcium concentration (in words): significantly reduce the free calcium concentration in Jurkat T cells; also recorded: obvious inhibition of Ca^2+ influx
[10]; listed as Ktx-sp2
  inhibition of Ca^2+ influx / free calcium concentration (in words): effectively reduce the concentration of free Ca^2+ in Jurkat T cells
[10]; 10 μM Ktx-Sp2, pre-treatment 3 min, store depletion by 10 μM CPA, decreased from 0.14 ± 0.02 without peptide, n = 278, ****P ≤ 0.0001
  F340/F380 ratio (net change induced by 2 mM extracellular Ca^2+): 0.05 ± 0.01
